According to patent US6596307B1, “Process for preparing pharmaceutical bulk material having uniform dissolution” (Eli Lilly and Company, priority 2001, dated 2003):
Values joined by “and” are separate entries in the source; they are usually repeats but may differ in a detail not shown here. Equal values may be shown once. Each block holds one compound with its values, some of them ahead of it.

Experiments:
Format in all cases: physicochemical
[1] = Near Infrared Dihydrate Conversion Test (NIR onset time); settings: for NIR Onset Time: cefaclor dihydrate dried in fluidized bed to different water contents (Table 2)
From the text: “NIR onset time” refers to the time between addition of water to a cefaclor sample and the observation of an absorption peak at about 5798 cm^−1 (1725 nm) as measured by Near-Infrared Reflectance Spectroscopy (NIRS). Depending upon the particular instrument used, the exact peak measurement may vary within the standard deviation established for that particular instrument.
The NIRS conversion test measures the time in minutes before the onset of the crystal form reversion for a sample of cefaclor bulk. […] To ensure that a lot will have an acceptable dissolution rate, one generally strives for a NIR onset time of >7 minutes, preferably >9 minutes and more preferably >10 minutes.
Approximately 1 to 2 grams of sample was spread in a thin layer on the bottom of an open aluminum weighing pan and placed in a constant humidity chamber, containing a saturated aqueous solution of K2HPO4, for at least two hours prior to analysis. Following equilibration in the humidity chamber, the sample was packed into a 2 mm×6 mm, stainless steel sample cup until full (approximately 35 mg), and 6 μL of water placed in the center of the sample. NIR data were collected using the NIR Systems model 5000 equipped with a fiber optic diffuse-reflectance probe, positioned over the sample cup. Immediately following addition of the water, NIR spectra were recorded from 1100 to 2500 nm approximately each 30 seconds. The time elapsed prior to the first appearance of the dihydrate peak at 1725 nm (5798 cm^−1) was reported as the NIR onset time.

[2] = Model Dissolution Test (capsule filled with drug substance only); settings: no related substances added; failed the test
Description: Approximately 523 mg of bulk cefaclor is filled into an empty 500 mg cefaclor capsule (KG3062). The USP monograph dissolution test is then performed with filtered samples being withdrawn at 15, 30, and 45 minutes. The test conditions are USP Apparatus 2 at 50 rpm using 900 ml of purified water maintained at 37° C. Visual examination is done at the time of sample collection. Visual observations range from “the material is completely dissolved and/or dispersed within 5 minutes with no visible residue or agglomerates to a large intact mass remains at the end of 45 minutes that is hard to the touch.” An ultraviolet (UV) assay is conducted on the filtered aliquots to determine the percent dissolution.

[3] = USP 23 Standard Dissolution Test for Cefaclor Capsules; parameters: Capsule dissolution rate, 1st stage (Avg. n = 6) / Capsule dissolution rate, 1st stage, individual unit / Capsule dissolution rate, 2nd stage, individual unit: unit: %; settings: water 37° C., 30 minutes, then rehydrated; for Capsule dissolution rate, 1st stage, individual unit: % dissolved
Description: Dissolution (711): The test conditions are USP Apparatus 2 at 50 rpm using 900 ml of purified water maintained at 37° C. for 30 minutes. Determine the amount of Cefaclor monohydrate dissolved from ultraviolet absorbances at the wavelength of maximum absorbances at about 264 nm of filtered portions of the solution under test, suitably diluted with water, in comparison with a Standard solution having a know concentration of USP Cefaclor RS in the same medium.
Dissolution testing is continued with additional units through three stages unless the results conform at either the 1st or 2nd stage according to the following acceptance
The quantity, Q, is the % of dissolved active ingredient in the specification. For Cefaclor, at Stage 1, each individual unit must be at least 85% dissolved in 30 minutes to pass the testing. If any of the 6 units tested is less than 85% dissolved, the product fails level S1 and you must go to S2. At Stage 2, the mean of the twelve units tested (first 6 from S1 and 6 from S2) must be at least 80% dissolved and no unit may be less than 65% dissolved. If these criteria are not met, the product fails the level S2 specification and you must go to S3. At Stage 3, the mean of the 24 units tested (6 from S1+6 from S2+12 from S3) must be at least 80% dissolved, no more than 2 units may be less than 65% dissolved, and none of the units may be less than 55% dissolved.

[4] = Solubility in water of crystal forms
[5] = X-ray diffraction conversion rate test (monohydrate to dihydrate after addition of water); settings: added at 0.5% by weight to poorly dissolving lot, mixed dry; 1 ml water to 0.80 g sample
Description: Through X-ray diffraction studies of readily dissolving and incompletely dissolving lots of cefaclor, it was determined that all lots are initially in the same crystallographic state (monohydrate). Upon addition of water to readily dissolving lots, there is no change in the X-ray powder diffraction pattern over a five minute period. In contrast, when water is added to incompletely dissolving lot of cefaclor, substantial amounts of the dihydrate form are detected in less than five minutes. In an older lot of cefaclor, no dihydrate was detected for as long as two days, at which time the study was discontinued.
The Δ^2-isomer was added to a poorly dissolving lot of cefaclor at 0.5% concentration by weight. The sample was mixed in the dry state. After addition of 1 ml of water to a 0.80 g sample, the X-ray diffraction pattern was collected at different time intervals.
Kinetic studies were carried out using fraction 6 to gain a better understanding of how much would be required to achieve acceptable results in the model dissolution test.

[6] = lots dried with full desiccation dried air
[7] = lots dried with 40 grains dried air
[8] = bulk dried to 3.0 to 6.5% water (control method)

NIR Onset Time [1]: 11 min
SMILES: N[C@@H](C(=O)N[C@@H]1C(=O)N2C(C(=O)O)=C(Cl)CS[C@H]12)c1ccccc1.O [Sample 1-2]

NIR Onset Time [1]: 3 min
SMILES: N[C@@H](C(=O)N[C@@H]1C(=O)N2C(C(=O)O)=C(Cl)CS[C@H]12)c1ccccc1.O [Sample 1-1]

dissolved in thirty minutes [2]: 78%
SMILES: N[C@@H](C(=O)N[C@@H]1C(=O)N2C(C(=O)O)=C(Cl)CS[C@H]12)c1ccccc1

Capsule dissolution rate, 1st stage, individual unit [3, 6]: 102% (2×) and 100% and 94% and 101% (2×)
Capsule dissolution rate, 1st stage (Avg. n = 6) [3, 6]: 100
SMILES: N[C@@H](C(=O)N[C@@H]1C(=O)N2C(C(=O)O)=C(Cl)CS[C@H]12)c1ccccc1 [Sample 2-1a]

Capsule dissolution rate, 1st stage, individual unit [3, 6]: 90 and 95 and 97 and 89 and 96 (2×)
Capsule dissolution rate, 1st stage (Avg. n = 6) [3, 6]: 94
SMILES: N[C@@H](C(=O)N[C@@H]1C(=O)N2C(C(=O)O)=C(Cl)CS[C@H]12)c1ccccc1 [Sample 2-1c]

NIR Onset Time [1]: 2.5 min
SMILES: N[C@@H](C(=O)N[C@@H]1C(=O)N2C(C(=O)O)=C(Cl)CS[C@H]12)c1ccccc1.O [Sample 1-3]

Capsule dissolution rate, 1st stage, individual unit [3, 6]: 91 and 85 and 88 and 96 and 95 and 92
Capsule dissolution rate, 1st stage (Avg. n = 6) [3, 6]: 90
SMILES: N[C@@H](C(=O)N[C@@H]1C(=O)N2C(C(=O)O)=C(Cl)CS[C@H]12)c1ccccc1 [Sample 2-1b]

solubility in water relative to the monohydrate form [4]: less readily soluble
SMILES: N[C@@H](C(=O)N[C@@H]1C(=O)N2C(C(=O)O)=C(Cl)CS[C@H]12)c1ccccc1 [cefaclor dihydrate]

effect of addition to a cefaclor bulk sample on dihydrate reversion time ([1]; indicator tests): decrease the reversion onset time
SMILES: N[C@@H](C(=O)N[C@@H]1C(=O)N2C(C(=O)O)=C(Cl)CS[C@H]12)c1ccccc1 [amorphous cefaclor, reference compound]

Capsule dissolution rate, 1st stage, individual unit [3, 7]: 97 and 92 and 95 and 81 and 98 and 101
Capsule dissolution rate, 1st + 2nd stage (Avg. n = 12) [3, 7]: 96
Capsule dissolution rate, 1st stage (Avg. n = 6) [3, 7]: 94
Capsule dissolution rate, 2nd stage (Avg. n = 6) [3, 7]: 98
Capsule dissolution rate, 2nd stage, individual unit [3, 7]: 98 and 95 and 99 and 100 and 97 and 96
SMILES: N[C@@H](C(=O)N[C@@H]1C(=O)N2C(C(=O)O)=C(Cl)CS[C@H]12)c1ccccc1 [Sample 2-2a]

NIR onset time, upper control limit [1, 8]: approximately 2.5 minutes
average NIR onset time [1, 8]: 1.2 min
SMILES: N[C@@H](C(=O)NC1C(=O)N2C(C(=O)O)=C(Cl)CS[C@H]12)c1ccccc1 (some centres unmarked) [Cefaclor Monohydrate (Control), reference compound]

inhibitory effect on conversion to dihydrate [5]: minor inhibitory effect
SMILES: N[C@@H](C(=O)NC1C(=O)N2C(C(=O)O)C(Cl)=CS[C@H]12)c1ccccc1 (stereo partly drawn) [Δ^2-isomer]
